# Numbered stars: 1 amine (or outer) side, 2 acyl side, 3 side chain; on linkers, the order of the positions; unused ones are H or OH. Square brackets hold non-standard residues; d marks the D form. Peptide text beside a SMILES is read from it. X1 = O=C([C@H]1CCCN1C[C@@H](O)[C@@H](Cc1ccccc1)N[*:1])[*:2]
# Molecular target: T1, Human immunodeficiency virus type 1 protease (Human immunodeficiency virus 1, UniProt Q72874)
# Experiment: In vitro inhibition of HIV protease, using a peptide hydrolysis assay
row,SMILES,IC50 [µM]
1,CC(C)(C)OC(=O)N[C@@H](Cc1ccccc1)[C@H](O)CN[C@H](Cc1ccccc1)C(=O)N[C@H]1c2ccccc2C[C@H]1O,7.3
2,CC(C)(C)OC(=O)N[C@@H](Cc1ccccc1)[C@@H](O)CN[C@@H](Cc1ccccc1)C(=O)N[C@H]1c2ccccc2C[C@H]1O,4.7
3,CC(C)(C)OC(=O)N[C@@H](Cc1ccccc1)[C@@H](O)CN[C@H](Cc1ccccc1)C(=O)N[C@H]1c2ccccc2C[C@H]1O,23.4
4,CC(C)(C)OC(=O)N[C@@H](Cc1ccccc1)C(O)CNC(Cc1ccccc1)C(=O)NC(CO)c1ccccc1 (stereo not given in full),38
5,CC(C)(C)OC(=O)N[C@@H](Cc1ccccc1)[C@H](O)CN[C@@H](Cc1ccccc1)C(=O)N[C@H]1c2ccccc2C[C@H]1O,0.252
6,CC(C)(C)OC(=O)N[C@@H](Cc1ccccc1)[C@H](O)CNC(C(=O)N[C@H]1c2ccccc2C[C@H]1O)C(O)c1ccccc1 (stereo in doubt; 12),8.5
7,CC(C)(C)OC(=O)N[C@@H](Cc1ccccc1)[C@H](O)CNC(C(=O)N[C@H]1c2ccccc2C[C@H]1O)C(O)c1ccccc1 (stereo in doubt; 13),8.6

# Molecular target: T1, Human immunodeficiency virus type 1 protease
# Experiment: In vitro inhibition of HIV-Protease, using a peptide hydrolysis assay
SMILES,IC50 [µM],Ki [µM]
NC(=O)CC(N)C(=O)N[C@@H](Cc1ccccc1)[C@H](O)CN[C@@H](Cc1ccccc1)C(=O)NC1c2ccccc2C[C@H]1O (stereo not given in full),1.1,
CC(C)(C)OC(=O)NC(CC(N)=O)C(=O)N[C@@H](Cc1ccccc1)C(O)CN[C@@H](Cc1ccccc1)C(=O)NC1c2ccccc2C[C@H]1O (stereo not given in full),0.295,
N[C@@H](Cc1ccccc1)C(O)CN[C@@H](Cc1ccccc1)C(=O)NC1c2ccccc2C[C@H]1O (stereo not given in full),63,
CC(C)(C)NC(=O)C(Cc1ccccc1)NCC(O)[C@H](Cc1ccccc1)NC(=O)OC(C)(C)C (stereo not given in full),> 100,
NC(=O)CC(NC(=O)c1ccc2ccccc2n1)C(=O)N[C@@H](Cc1ccccc1)[C@H](O)CN[C@@H](Cc1ccccc1)C(=O)NC1c2ccccc2C[C@H]1O (stereo not given in full),0.0054,
CC(C)(C)OC(=O)N[C@@H](Cc1ccccc1)[C@H](O)CN1C[C@H]2CCCC[C@H]2C[C@H]1C(=O)NC1c2ccccc2CC1O (stereo not given in full),> 3,
CC(C)(C)NC(=O)[C@@H]1C[C@@H]2CCCC[C@@H]2CN1C[C@@H](O)[C@H](Cc1ccccc1)NC(=O)OC(C)(C)C,> 3,
CC[C@H](C)[C@H](NC(=O)[C@H]1CCCN1C[C@@H](O)[C@@H](Cc1ccccc1)NC(=O)[C@H](CC(N)=O)NC(=O)[C@H](CC(C)C)NC(=O)[C@@H](N)CO)C(=O)N[C@H](C(=O)OC)C(C)C (H-SLN[X1]IV-OMe),,0.00024
